The target of test [1] is T1, E2F8 DNA-binding domain (Homo sapiens, UniProt A0AVK6, R156A/R314A).
T1 construct: N-terminal thioredoxin-6xHis tag removed by TEV protease; E. coli Rosetta (DE3) pLysS
T1 sequence (A0AVK6 110-350 R156A/R314A): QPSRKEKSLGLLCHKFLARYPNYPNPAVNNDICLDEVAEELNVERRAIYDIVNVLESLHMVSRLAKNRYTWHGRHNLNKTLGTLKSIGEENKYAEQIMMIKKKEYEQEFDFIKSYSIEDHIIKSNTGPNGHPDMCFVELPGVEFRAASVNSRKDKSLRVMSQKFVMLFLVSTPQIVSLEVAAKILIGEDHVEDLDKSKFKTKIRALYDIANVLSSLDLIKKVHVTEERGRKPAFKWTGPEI
Put plainly: SPR (Biacore 8K, CM5 amine coupling, steady-state […]).

For test [2], the target named is T2, E2F8 DNA-binding domain (Homo sapiens, UniProt A0AVK6).
T2 construct: N-terminal thioredoxin-6xHis tag removed by TEV protease; E. coli Rosetta (DE3) pLysS
T2 sequence (A0AVK6 110-350): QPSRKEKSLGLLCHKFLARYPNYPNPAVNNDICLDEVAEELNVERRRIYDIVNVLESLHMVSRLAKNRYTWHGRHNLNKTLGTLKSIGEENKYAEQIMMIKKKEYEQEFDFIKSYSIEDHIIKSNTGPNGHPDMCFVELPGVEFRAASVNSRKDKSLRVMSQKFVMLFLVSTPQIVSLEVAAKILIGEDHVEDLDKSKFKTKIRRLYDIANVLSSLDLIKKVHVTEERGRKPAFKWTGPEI
The test is described as above.

Each structure is given as a SMILES string.

Consider `O=C(Nc1ccccc1C(=O)O)c1cccc(N2C(=O)c3ccc(C(=O)Nc4ccccc4C(=O)O)cc3C2=O)c1` [HIT-4], for which the Kd was 7.96 µM on E2F8 DNA-binding domain [1] and 0.15 µM on E2F8 DNA-binding domain [2].

These data come from PMC12822184, “Targeting E2F8 sensitizes gemcitabine-resistant gallbladder cancer to PARP inhibitors by disrupting RRM2-driven DNA repair” (Journal of Experimental & Clinical Cancer Research : CR, 2025).
